Drawing on patent US9868746B2, “Substituted 5-aminothieno[2,3-C]pyridazine-6-carboxamide analogs as positive allosteric modulators of the muscarinic acetylcholine receptor M4” (Vanderbilt University, priority 2012, dated 2018), this text covers Emax and EC50 for 53 compounds.

This test deals with T1, mAChR M4 (Homo sapiens, UniProt P08173).
T1 construct: expressed in transfected cells; host or cells: CHO-K1 cells stably transfected with M4 cDNA and chimeric G-protein Gqi5
T1 sequence (P08173 1-479): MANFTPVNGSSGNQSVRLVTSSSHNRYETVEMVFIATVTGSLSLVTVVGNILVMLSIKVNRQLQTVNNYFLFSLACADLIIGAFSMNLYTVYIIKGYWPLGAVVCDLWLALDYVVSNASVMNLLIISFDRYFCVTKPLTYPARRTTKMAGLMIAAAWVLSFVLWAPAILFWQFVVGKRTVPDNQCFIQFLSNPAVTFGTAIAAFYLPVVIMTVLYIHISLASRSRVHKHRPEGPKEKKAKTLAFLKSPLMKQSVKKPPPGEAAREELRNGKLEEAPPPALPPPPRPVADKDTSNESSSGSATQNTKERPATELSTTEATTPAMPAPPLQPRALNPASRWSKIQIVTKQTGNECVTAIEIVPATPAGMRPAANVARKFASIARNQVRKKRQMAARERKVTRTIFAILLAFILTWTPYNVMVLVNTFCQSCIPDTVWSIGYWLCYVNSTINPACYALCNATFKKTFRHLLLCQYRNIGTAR
Description: mAChR M4 cell-based functional assay (calcium mobilization, potentiation of EC20 acetylcholine response). The settings on record: for Emax at 30 µM: % ACh maximum at 30 μM; for EC50: mAChR M4 cell-based functional assay, >10,000 estimated for low potency compounds without plateau, read-out: EC50.

Some results are limits rather than exact numbers.

For orientation: Emax means the size of the effect at its maximum, as opposed to the concentration needed. One may read the EC50 as the concentration giving half of the maximal effect. With `Cc1nnc2sc(C(=O)N3CC(NS(=O)(=O)c4cn(C)cn4)C3)c(N)c2c1C` [Example B174], the Emax at 30 µM is 51% and the EC50 was 6700 nM.
Take `CCCCCC(=O)NC1CN(C(=O)c2sc3nnc(C)c(C)c3c2N)C1` [Example B175]: the Emax at 30 µM is 52% and the EC50 is more than 10000 nM.
Regarding `Cc1nnc2sc(C(=O)NCc3ccc(OCC(F)F)cc3)c(N)c2c1C` [Example B176], the Emax at 30 µM came to 73% and the EC50 was 23 nM.
As for `Cc1nnc2sc(C(=O)N3CC(NC(=O)CCc4ccccc4)C3)c(N)c2c1C` [Example B177], the Emax at 30 µM stood at 53% and the EC50 was 970 nM.
In the case of `CCCOC(=O)NC1CN(C(=O)c2sc3nnc(C)c(C)c3c2N)C1` [Example B178], the Emax at 30 µM was 60% and the EC50 is 1700 nM.
With `Cc1nnc2sc(C(=O)N3CC(O)(c4ccccc4)C3)c(N)c2c1C` [Example B179], the Emax at 30 µM turned out to be 33% and the EC50 is 920 nM.
For the compound `Cc1nnc2sc(C(=O)N3CC(NS(=O)(=O)c4cccc5ncccc45)C3)c(N)c2c1C` [Example B180], the maximal response (Emax) at 30 µM came to 43% and the EC50 was 1100 nM.
The corresponding values for `Cc1nnc2sc(C(=O)NCc3ccc(OC(F)(F)F)cc3)c(N)c2c1C` [Example B181] are 68% and 30 nM.
As to `Cc1nnc2sc(C(=O)N3CC(NC(=O)C4CC4c4ccccc4)C3)c(N)c2c1C` (stereo not shown) [Example B182], the Emax at 30 µM amounted to 59% and the EC50 is 2300 nM.
The corresponding values for `Cc1ccc(S(=O)(=O)NC2CN(C(=O)c3sc4nnc(C)c(C)c4c3N)C2)cc1` [Example B183] are 47% and 490 nM.
`Cc1nnc2sc(C(=O)N3CC(NC(=O)c4ccncc4)C3)c(N)c2c1C` [Example B184]: the Emax at 30 µM was found to be 48% and the EC50 is 1900 nM.
Turning to `Cc1nnc2sc(C(=O)N3CC(NC(=O)C4CCCCC4)C3)c(N)c2c1C` [Example B185], the Emax at 30 µM turned out to be 54% and the EC50 was 1800 nM.
In the case of `CC(O)(c1ccc(CNC(=O)c2sc3nnc4c(c3c2N)CCCC4)cc1)C(F)(F)F` (stereo not shown) [Example B188], the Emax at 30 µM was 56% and the EC50 is 900 nM.
With `Nc1c(C(=O)NCc2ccc(S(=O)(=O)C(F)(F)F)cc2)sc2nnc3c(c12)CCCC3` [Example B189], the Emax at 30 µM was determined as 42% and the EC50 is 420 nM.
With `Cc1nnc2sc(C(=O)N3CC(NC(=O)OCc4ccccc4)C3)c(N)c2c1C` [Example B190], the Emax at 30 µM is 53% and the EC50 is 560 nM.
Taken in the same sequence, the figures for `Cc1nnc2sc(C(=O)N3CC(Br)(c4ccccc4)C3)c(N)c2c1C` [Example B191] were 45% and 2100 nM.
The corresponding values for `Cc1nnc2sc(C(=O)N[C@@H]3CCN(c4ccccc4)C3)c(N)c2c1C` [Example B192] are 51% and 1800 nM.
`Cc1nnc2sc(C(=O)N[C@H]3CCN(c4ccccc4)C3)c(N)c2c1C` [Example B193]: the Emax at 30 µM came out at 63% and the EC50 was 14 nM.
The corresponding values for `Cc1nnc2sc(C(=O)N3CCC4(CN(C(=O)OC(C)(C)C)C4)C3)c(N)c2c1C` [Example B194] are 30% and 4700 nM.
Consider `Cc1nnc2sc(C(=O)NCc3ccc4[nH]ccc4c3)c(N)c2c1C` [Example B195], for which the Emax at 30 µM turned out to be 62% and the EC50 is 65 nM.
Taken in the same sequence, the figures for `Cc1nnc2sc(C(=O)NCc3ccc4c(ccn4C)c3)c(N)c2c1C` [Example B196] were 69% and 61 nM.
Turning to `Cc1nnc2sc(C(=O)NCC3CN(C(=O)OC(C)(C)C)C3)c(N)c2c1C` [Example B197], the Emax at 30 µM turned out to be 35% and the EC50 was more than 10000 nM.
As for `CCOc1ccc(CNC(=O)c2sc3nnc(C)c(C)c3c2N)cc1` [Example B198], the Emax at 30 µM was found to be 63% and the EC50 is 25 nM.
As for `COCCOCCNC(=O)c1sc2nnc(C)c(C)c2c1N` [Example B199], the Emax at 30 µM was determined as 52% and the EC50 is more than 10000 nM.
As for `Cc1nnc2sc(C(=O)NC3CCN(C(=O)c4cccs4)C3)c(N)c2c1C` (stereo not shown) [Example B200], the Emax at 30 µM was found to be 74% and the EC50 was 91 nM.
Taken in the same sequence, the figures for `Cc1nnc2sc(C(=O)N3CCC(NC(=O)N4CCOCC4)C3)c(N)c2c1C` (stereo not shown) [Example B201] were 56% and more than 10000 nM.
As for `Cc1nnc2sc(C(=O)N3CCC(NS(=O)(=O)c4cncn4C)C3)c(N)c2c1C` (stereo not shown) [Example B202], the Emax at 30 µM worked out at 69% and the EC50 was 3800 nM.
Turning to `Cc1nnc2sc(C(=O)NC3CCN(C(=O)Oc4ccccc4)C3)c(N)c2c1C` (stereo not shown) [Example B203], the Emax at 30 µM came to 74% and the EC50 was 100 nM.
Turning to `Cc1nnc2sc(C(=O)N3CCC(NC(=O)c4ccncc4)C3)c(N)c2c1C` (stereo not shown) [Example B204], the Emax at 30 µM is 64% and the EC50 was 5000 nM.
Taken in the same sequence, the figures for `Cc1nnc2sc(C(=O)N3CCC(NC(=O)Oc4ccccc4)C3)c(N)c2c1C` (stereo not shown) [Example B205] were 71% and 570 nM.
Regarding `Cc1nnc2sc(C(=O)NC3CCN(C(=O)OCc4ccccc4)C3)c(N)c2c1C` (stereo not shown) [Example B206], the Emax at 30 µM stood at 64% and the EC50 is 31 nM.
With `Cc1nnc2sc(C(=O)N3CCC(NS(=O)(=O)c4ccccc4)C3)c(N)c2c1C` (stereo not shown) [Example B207], the Emax at 30 µM was determined as 64% and the EC50 was 1300 nM.
As to `Cc1nnc2sc(C(=O)NC3CCN(C(=O)N4CCOCC4)C3)c(N)c2c1C` (stereo not shown) [Example B208], the Emax at 30 µM stood at 73% and the EC50 is 2100 nM.
As for `Cc1nnc2sc(C(=O)NC3CCN(S(=O)(=O)c4ccccc4OC(F)(F)F)C3)c(N)c2c1C` (stereo not shown) [Example B209], the Emax at 30 µM came to 68% and the EC50 was 310 nM.
Taken in the same sequence, the figures for `CCCOC(=O)NC1CCN(C(=O)c2sc3nnc(C)c(C)c3c2N)C1` (stereo not shown) [Example B210] were 58% and more than 10000 nM.
`Cc1nnc2sc(C(=O)N3CCC(NS(=O)(=O)c4cccc(F)c4)C3)c(N)c2c1C` (stereo not shown) [Example B211]: the Emax at 30 µM was found to be 70% and the EC50 was 1400 nM.
Consider `CCCCOc1ccc(C(=O)N2CCC(NC(=O)c3sc4nnc(C)c(C)c4c3N)C2)cc1` (stereo not shown) [Example B212], for which the Emax at 30 µM turned out to be 76% and the EC50 was 870 nM.
The corresponding values for `COc1cccc(S(=O)(=O)NC2CCN(C(=O)c3sc4nnc(C)c(C)c4c3N)C2)c1` (stereo not shown) [Example B213] are 65% and 4500 nM.
As for `COc1cccc(S(=O)(=O)N2CCC(NC(=O)c3sc4nnc(C)c(C)c4c3N)C2)c1` (stereo not shown) [Example B214], the Emax at 30 µM is 73% and the EC50 is 820 nM.
As for `Cc1ccc(S(=O)(=O)N2CCC(NC(=O)c3sc4nnc(C)c(C)c4c3N)C2)s1` (stereo not shown) [Example B215], the Emax at 30 µM amounted to 75% and the EC50 was 340 nM.
For the compound `Cc1nnc2sc(C(=O)N3CCC(NC(=O)c4cccc(F)c4)C3)c(N)c2c1C` (stereo not shown) [Example B216], the Emax at 30 µM came out at 62% and the EC50 is more than 10000 nM.
Take `Cc1nnc2sc(C(=O)N3CCC(NC(=O)c4ccc(F)c(F)c4)C3)c(N)c2c1C` (stereo not shown) [Example B217]: the Emax at 30 µM worked out at 53% and the EC50 is 1100 nM.
On to `CCCCCC(=O)NC1CCN(C(=O)c2sc3nnc(C)c(C)c3c2N)C1` (stereo not shown) [Example B218], for which the Emax at 30 µM was determined as 61% and the EC50 was 5000 nM.
As for `Cc1nnc2sc(C(=O)NC3CCN(C(=O)c4ccc(F)cc4)C3)c(N)c2c1C` (stereo not shown) [Example B219], the Emax at 30 µM amounted to 77% and the EC50 was 350 nM.
As for `Cc1nnc2sc(C(=O)N3CCC(NC(=O)OCc4ccccc4)C3)c(N)c2c1C` (stereo not shown) [Example B220], the Emax at 30 µM came out at 67% and the EC50 was 830 nM.
Turning to `Cc1nnc2sc(C(=O)NC3CCN(C(=O)CCc4ccccc4)C3)c(N)c2c1C` (stereo not shown) [Example B221], the Emax at 30 µM worked out at 72% and the EC50 is 1300 nM.
With `Cc1nnc2sc(C(=O)NC3CCN(C(=O)OC(C)C)C3)c(N)c2c1C` (stereo not shown) [Example B222], the Emax at 30 µM worked out at 50% and the EC50 was more than 10000 nM.
The corresponding values for `Cc1nnc2sc(C(=O)N3CCC(NS(=O)(=O)c4ccc(F)cc4)C3)c(N)c2c1C` (stereo not shown) [Example B223] are 61% and 2400 nM.
The corresponding values for `CCCOC(=O)N1CCC(NC(=O)c2sc3nnc(C)c(C)c3c2N)C1` (stereo not shown) [Example B224] are 77% and 610 nM.
In the case of `Cc1ccc(C(=O)NC2CCN(C(=O)c3sc4nnc(C)c(C)c4c3N)C2)cc1` (stereo not shown) [Example B225], the Emax at 30 µM amounted to 62% and the EC50 is 1400 nM.
Turning to `Cc1nnc2sc(C(=O)NC3CCN(C(=O)C4CCCCC4)C3)c(N)c2c1C` (stereo not shown) [Example B226], the Emax at 30 µM was determined as 84% and the EC50 was 430 nM.
`Cc1nnc2sc(C(=O)NC3CCN(C(=O)Cc4cccs4)C3)c(N)c2c1C` (stereo not shown) [Example B227]: the Emax at 30 µM amounted to 76% and the EC50 was 920 nM.
Regarding `Cc1nnc2sc(C(=O)NC3CCN(C(=O)c4ccc(F)cc4F)C3)c(N)c2c1C` (stereo not shown) [Example B228], the Emax at 30 µM amounted to 81% and the EC50 is 350 nM.
